8 molecules from patent US11827616B2, “Heterocyclic compounds as pesticides” (Discovery Purchaser Corporation, priority 2018, dated 2023) can be followed below.

The term mortality denotes the percentage killed.

Holding throughout (type): in vivo
Assay [1] relates to Ctenocephalides felis. The assay is described as follows: Ctenocephalides felis in vitro contact test with adult cat fleas. Particulars: application rate 5 μg/cm^2 (=500 g/ha); after 48 h. The method, boiled down: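 Glass tubes coated with acetone solutions of compound (900 ppm giving 5 μg/cm^2), dried, then held 5-10 adult cat fleas at room temperature and ambient humidity. After 48 h, dead or moribund fleas were scored; efficacy expressed as percent affected.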

For the next assay, the system named is Myzus persicae. Nature of the assay: Myzus persicae spray test. Particulars: application rate 500 g/ha; after 5 days. As for the experimental part: Myzus persicae—Spray Test
Solvent: 78 parts by weight of acetone • • 1.5 parts by weight of dimethylformamide
(§1) Emulsifier: alkylaryl polyglycol ether
(§2) To produce a suitable active compound formulation, 1 part by weight of active compound is dissolved with the specified parts by weight of solvent and made up to the desired concentration with water containing an emulsifier concentration of 1000 ppm. To produce further test concentrations, the formulation is diluted with emulsifier-containing water.
Discs of Chinese cabbage leaves (Brassica pekinensis) infested by all stages of the green peach aphid (Myzus persicae) are sprayed with an active compound formulation of the desired concentration.
After 5 days, the efficacy in % is determined. 100% means that all the aphids have been killed; 0% means that no aphids have been killed.

In a further assay the test system is Lucilia cuprina. The assay is described as follows: Lucilia cuprina test. The conditions noted are these: application rate 100 ppm; L1 larvae; after 2 days. In short, it runs like this:
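About 20 first-instar larvae were placed in vessels of minced horsemeat with compound at the desired concentration. Compound was dissolved in DMSO and diluted in water. Percent kill scored after 2 days.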

In a further assay the test system is Tetranychus urticae. Nature of the assay: Tetranychus urticae spray test, OP-resistant. Particulars: application rate 500 g/ha; after 6 days. The method, boiled down:
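Bean leaf discs carrying all stages of OP-resistant Tetranychus urticae were sprayed with compound in acetone/dimethylformamide diluted in water containing alkylaryl polyglycol ether emulsifier (1000 ppm). Mortality scored after 6 days as % efficacy (100% = all mites killed).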

For another assay, the system named is Phaedon cochleariae. The assay is described as follows: Phaedon cochleariae spray test. Particulars: application rate 500 g/ha, after 7 days. In short, it runs like this: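 Chinese cabbage leaf discs sprayed with compound formulated in acetone/DMF and water with 1000 ppm emulsifier, then infested with mustard beetle larvae once dry. Percent larval kill scored after 7 days (100% = all dead, 0% = none).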

In the next assay the test system is Nilaparvata lugens. The assay is described as follows: Nilaparvata lugens test. Particulars: application rate 500 g/ha; after 4 days. Here is the method:
(§3) Solvent: 78.0 parts by weight of acetone • • 1.5 parts by weight of dimethylformamide
as §1, §2
Rice plants (Oryza sativa) are sprayed with the active compound formulation of the desired concentration and then infected with the brown planthopper (Nilaparvata lugens).
After 4 days, the efficacy in % is determined. 100% means that all of the planthoppers have been killed; 0% means that none of the planthoppers have been killed.

In the next assay the test system is Boophilus microplus. Nature of the assay: Boophilus microplus injection test. Particulars: application rate 20 μg/animal, after 7 days. In short, it runs like this:
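Compound dissolved in DMSO; 1 μl injected into the abdomen of engorged adult female ticks, five per group, kept in climate-controlled room. Efficacy scored after 7 days from fertile egg laying (100% = no fertile eggs; 0% = all fertile), with unclear eggs held ~42 days until hatching.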

The subject of another assay is Rhipicephalus sanguineus. The assay is described as follows: Rhipicephalus sanguineus in vitro contact test with adult brown dog ticks. The conditions noted are these: application rate 5 μg/cm^2 (=500 g/ha); after 48 h. The method, boiled down: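 Glass tubes coated with compound in acetone (900 ppm solution giving 5 μg/cm^2), then 5-10 adult ticks held in the dark at room temperature and ambient humidity. At 48 h, ticks placed on a 45-50° C. hotplate for up to 5 min; motionless or uncoordinated ones scored dead/moribund, giving % efficacy.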

Another assay relates to Spodoptera frugiperda. The assay is described as follows: Spodoptera frugiperda spray test. Particulars: application rate 500 g/ha, after 7 days. The method, boiled down: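 Maize leaf discs sprayed with compound formulated in acetone/dimethylformamide and diluted in water with 1000 ppm alkylaryl polyglycol ether emulsifier. Once dry, discs are infested with fall armyworm caterpillars. Efficacy in % read after 7 days: 100% all caterpillars killed, 0% none killed.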

Assay [2] has as its system Ctenocephalides felis. Nature of the assay: Ctenocephalides felis oral test. The conditions noted are these: application rate 100 ppm in citrated cattle blood; after 2 days. In short, it runs like this:
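About 20 unfed adult cat fleas fed via parafilm membrane on citrated cattle blood containing compound (DMSO formulation). Kill % scored after 2 days, 100% meaning all fleas dead.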

For assay [3], the system named is Aedes aegypti strain MONHEIM. The assay is described as follows: Aedes test (AEDSAE surface treatment). The conditions noted are these: 24 hours after contact, read-out: efficacy (mortality in %). As for the experimental part:
Aedes Test (AEDSAE Surface Treatment)
(§4) Solvent: acetone+2000 ppm rapeseed oil methyl ester (RME)
To produce an appropriate active compound formulation, the active compound is dissolved in the solvent (2 mg/ml). The active compound formulation is pipetted onto a glazed tile and, after it has dried off, adult mosquitoes of the species Aedes aegypti strain MONHEIM are placed onto the treated tile. The exposure time is 30 minutes. 24 hours after contact with the treated surface, mortality in % is determined. 100% means that all mosquitoes have been killed; 0% means that none of the mosquitoes have been killed.

Assay [4] relates to Anopheles funestus strain FUMOZ-R. The assay is described as follows: Anopheles test (ANPHFU surface treatment). The conditions noted are these: 24 hours after contact, read-out: efficacy (mortality in %). Here is the method: Anopheles Test (ANPHFU Surface Treatment)
as §4
To produce an appropriate active compound formulation, the active compound is dissolved in the solvent (2 mg/ml). The active compound formulation is pipetted onto a glazed tile and, after it has dried off, adult mosquitoes of the species Anopheles funestus strain FUMOZ-R (Hunt et al., Med Vet Entomol. 2005 Sep.; 19 (3):271-5) are placed onto the treated tile. The exposure time is 30 minutes.
24 hours after contact with the treated surface, mortality in % is determined. 100% means that all mosquitoes have been killed; 0% means that none of the mosquitoes have been killed.

The subject of assay [5] is Anopheles gambiae strain RSPH (homozygot kdr). Nature of the assay: Anopheles test (ANPHGB surface treatment). Particulars: 24 hours after contact, read-out: efficacy (mortality in %).
The subject of a further assay is Meloidogyne incognita. Nature of the assay: Meloidogyne incognita test. Particulars: application rate 20 ppm; after 14 days. As for the experimental part:
Meloidogyne incognita Test
Solvent: 125.0 parts by weight of acetone
To produce a suitable active compound formulation, 1 part by weight of active compound is mixed with the stated amount of solvent and the concentrate is diluted to the desired concentration with water.
Vessels are filled with sand, active compound solution, an egg/larvae suspension of the southern root-knot nematode (Meloidogyne incognita) and lettuce seeds. The lettuce seeds germinate and the plants develop. The galls develop on the roots.
After 14 days, the nematicidal efficacy in % is determined by the formation of galls. 100% means that no galls were found; 0% means that the number of galls on the treated plants corresponds to the untreated control.

The next assay relates to Musca domestica. Nature of the assay: Musca domestica test. Particulars: application rate 100 ppm; adult houseflies; after 2 days. Here is the method:
Solvent: dimethyl sulfoxide
To produce a suitable active compound formulation, 10 mg of active compound are mixed with 0.5 ml of dimethyl sulfoxide, and the concentrate is diluted with water to the desired concentration.
Vessels containing a sponge treated with sugar solution and the desired concentration of active compound formulation are populated with 10 adult houseflies (Musca domestica).
After 2 days, the kill in % is determined. 100% means that all of the flies have been killed; 0% means that none of the flies have been killed.

The subject of another assay is Nezara viridula. The assay is described as follows: Nezara viridula spray test. The conditions noted are these: application rate 500 g/ha; after 4 days. As for the experimental part:
Nezara viridula—Spray Test
as §3, §1, §2
Barley plants (Hordeum vulgare) infected with larvae of the Southern green shield bug (Nezara viridula) are srayed with an active compound formulation of the desired concentration.
After 4 days, the efficacy in % is determined. 100% means that all of the shield bugs have been killed; 0% means that none of the shield bugs have been killed.

The mark [6] stands for this setting: application rate 20 mg/m^2, exposure 30 minutes.
Setting [7] is: application rate 100 mg/m^2, exposure 30 minutes.

The structures appear in SMILES notation.

Take `CON(C)CCOc1cnc(COc2cccc(-c3cccc(OC(F)(F)F)c3)c2)c(F)c1` [Example 53]: the “efficacy (fleas dead or moribund)” value in the assay with Ctenocephalides felis [1] came out at 100%. Moreover, the efficacy with Myzus persicae is on record as 90%; in the assay with Tetranychus urticae, 100%; with Phaedon cochleariae, 100%; with Nilaparvata lugens it was 100%; in the assay on Spodoptera frugiperda, 100%. The “efficacy (kill in %)” value with Lucilia cuprina is listed as 100%. Also, in the assay on Boophilus microplus, the “efficacy (laying of fertile eggs)” value was found to be 100%. For the same molecule, the “efficacy (ticks dead or moribund)” value in the assay with Rhipicephalus sanguineus amounted to 100%.

Regarding `CON(C)CCOc1cnc(COc2ccc3oc4ccccc4c3c2)c(F)c1` [Example 20], in the assay on Ctenocephalides felis [1], the “efficacy (fleas dead or moribund)” value is on record as 100%. Also, the “efficacy (kill in %)” value amounted to 100% with Lucilia cuprina and 95% in the assay with Ctenocephalides felis [2]. Also, the efficacy in the assay with Phaedon cochleariae, in the assay on Nilaparvata lugens and in the assay with Spodoptera frugiperda was 100% each time. Besides, the “efficacy (laying of fertile eggs)” value in the assay with Boophilus microplus was found to be 100%. Moreover, the “efficacy (ticks dead or moribund)” value in the assay on Rhipicephalus sanguineus turned out to be 100%.

Take `CON(C)CCOc1cnc(COc2ccc(F)c(-c3cccc(OC(F)(F)F)c3)c2)c(C)c1` [Example 59]: the “efficacy (fleas dead or moribund)” value with Ctenocephalides felis [1] worked out at 100%. Besides, the efficacy in the assay with Myzus persicae came to 90%; with Tetranychus urticae it was 100%; in the assay with Phaedon cochleariae it was 83%; in the assay on Spodoptera frugiperda it was 100%. In the assay on Lucilia cuprina, the “efficacy (kill in %)” value came to 100%. Also, the “efficacy (laying of fertile eggs)” value in the assay on Boophilus microplus was 100%. The “efficacy (ticks dead or moribund)” value in the assay on Rhipicephalus sanguineus stood at 100%.

On to `CON(C)CCOc1cnc(COc2cccc3c(Cl)c(Cl)ccc23)c(F)c1` [Example 22, 2-[(6-{[(5,6-dichloro-1-naphthyl)oxy]methyl}-5-fluoropyridin-3-yl)oxy]-N-methoxy-N-methylethanamine], for which the “efficacy (fleas dead or moribund)” value with Ctenocephalides felis [1] was 100%. In addition, the mortality at 20 mg/m2 in assay [3] (setting [6]), in assay [4] (setting [6]) and in [5] (setting [6]) was 80 to 100% in each case. For the same molecule, the mortality at 100 mg/m2 in assay [3] (setting [7]), in assay [4] (setting [7]) and in [5] (setting [7]) was 80 to 100% in each case. The “efficacy (kill in %)” value is listed as 100% with Lucilia cuprina and 90% with Ctenocephalides felis [2]. Besides, the pest or weed control at 500 g/ha in the assay on Phaedon cochleariae (Phaedon cochleariae, 168 h, read-out: efficacy) was 100%; with Spodoptera frugiperda (Spodoptera frugiperda, 168 h, read-out: efficacy), 100%. In the assay on Nilaparvata lugens, the efficacy is on record as 90%. Moreover, in the assay with Boophilus microplus (Rhipicephalus microplus, 168 h, read-out: efficacy (laying of fertile eggs)), the pest or weed control at 0.02 mg was determined as 100%. Besides, the “efficacy (ticks dead or moribund)” value in the assay on Rhipicephalus sanguineus is 100%.

For `CC(=O)N1CCC(Oc2ccc(COc3ccc(Cl)c4ccccc34)cn2)C1` (stereo not shown) [Example 4], in the assay with Meloidogyne incognita, the “nematicidal efficacy (formation of galls)” value was determined as 90%. In addition, the entries for the “efficacy (kill in %)” value with Musca domestica, with Lucilia cuprina and in the assay on Ctenocephalides felis [2] were 80%, 100% and 100%, respectively. Further, the efficacy with Phaedon cochleariae and in the assay with Spodoptera frugiperda was 100% throughout. In the assay with Boophilus microplus, the “efficacy (laying of fertile eggs)” value is 100%.

As to `CON(C)CCOc1ccc(COc2ccc(F)c(-c3cccc(OC(F)(F)F)c3)c2)cn1` [Example 10], the efficacy came to 90% in the assay on Myzus persicae, 100% with Tetranychus urticae, 100% in the assay on Phaedon cochleariae and 100% in the assay with Spodoptera frugiperda.

In the case of `CON(C)CCOc1cnc(COc2ccc(F)c(-c3cccc(OC(F)(F)F)c3)c2)c(F)c1` [Example 50], the efficacy in the assay with Myzus persicae is on record as 90%; with Tetranychus urticae it was 100%; in the assay on Phaedon cochleariae it was 100%; with Nilaparvata lugens it was 100%; in the assay with Nezara viridula, 100%; in the assay with Spodoptera frugiperda, 100%.

`CON(C)CCOc1cnc(COc2ccc(Cl)c(-c3cccc(OC(F)(F)F)c3)c2)c(F)c1` [Example 48]: in the assay with Ctenocephalides felis [1], the “efficacy (fleas dead or moribund)” value came out at 100%. Moreover, the efficacy in the assay with Myzus persicae worked out at 90%; in the assay with Tetranychus urticae, 100%; in the assay with Phaedon cochleariae, 100%; in the assay with Spodoptera frugiperda, 100%. Also, the “efficacy (kill in %)” value in the assay on Lucilia cuprina was found to be 100%. For the same molecule, in the assay with Boophilus microplus, the “efficacy (laying of fertile eggs)” value came to 100%. Moreover, the “efficacy (ticks dead or moribund)” value in the assay on Rhipicephalus sanguineus is listed as 100%.
